Results from ChEMBL document CHEMBL1135350, “Synthesis of an arabinofuranosyl disaccharide photoaffinity probe for arabinosyltransferase activity in Mycobacterium tuberculosis” (Bioorg Med Chem Lett, 2002).

Tested on: Mycobacterium tuberculosis
Assay: Enzyme kinetic constant of compound for Arabinosyltransferase in Mycobacterium tuberculosis was determined

What does the source list for [N-]=[N+]=Nc1cccc2c(S(=O)(=O)NCCOC3O[C@H](COC4O[C@H](CO)[C@@H](O)[C@H]4O)[C@@H](O)[C@H]3O)cccc12 (some centres not stated)?
Km: 3.07 mM; Vmax (pM min-1 mg-1): 4.26
